Active and inactive are the calls of the source. How the calls were made is not given here.
Molecular target: Ras-related protein Rab7 wild type (dog)
Test: Rab7 wildtype GTP binding inhibitors, SAR follow-up, biochemical, dog Rab7, bead multiplex flow cytometry, round 2 (AID 588631)
Details: Bead-based multiplex flow cytometry, fluorescent GTP binding

| EC50 [nM] | Structure (SMILES) |
| --- | --- |
| 496 | CC1(C)Cc2c(sc(NC(=S)NC(=O)c3ccc(Br)cc3)c2C(=O)O)CO1 |
| 415 | CC1(C)Cc2c(sc(NC(=S)NC(=O)c3cccc(F)c3)c2C(=O)O)CO1 |
| 1160 | Cc1cccc(C(=O)NC(=S)Nc2sc3c(c2C(=O)O)CC(C)(C)OC3)c1 |
| 411 | Cc1ccccc1C(=O)NC(=S)Nc1sc2c(c1C(=O)O)CC(C)(C)OC2 |
| 135 | Cc1ccc(C(=O)NC(=S)Nc2sc3c(c2C(=O)O)CC(C)(C)OC3)cc1 |
| 809 | CC1(C)Cc2c(sc(NC(=S)NC(=O)C3CCCCC3)c2C(=O)O)CO1 |
| 95 | CC1(C)Cc2c(sc(NC(=S)NC(=O)c3ccc(F)cc3)c2C(=O)O)CO1 |
| 295 | COc1cccc(C(=O)NC(=S)Nc2sc3c(c2C(=O)O)CC(C)(C)OC3)c1 |
| 1210 | CC1(C)Cc2c(sc(NC(=S)NC(=O)c3ccccc3Br)c2C(=O)O)CO1 |
| 318 | CC1(C)Cc2c(sc(NC(=S)NC(=O)c3ccccc3F)c2C(=O)O)CO1 |
| 3990 | CC1(C)Cc2c(sc(NC(=S)NC(=O)c3cccc(Br)c3)c2C(=O)O)CO1 |
| 74 | CC1(C)Cc2c(sc(NC(=S)NC(=O)c3ccco3)c2C(=O)O)CO1 |
| 37 | CCC1(C)Cc2c(sc(NC(=S)NC(=O)c3ccccc3)c2C(=O)O)CO1 (stereo not given) |
| 35 | O=C(NC(=S)Nc1sc2c(c1C(=O)O)CC1(CCCC1)OC2)c1ccccc1 |
| 46 | CC1(C)CCc2sc(NC(=S)NC(=O)c3ccccc3)c(C(=O)O)c2C1 |
| 25 | CC1(C)Cc2c(sc(NC(=S)NC(=O)c3cccs3)c2C(=O)O)CO1 |
| 221 | COc1ccc(C(=O)NC(=S)Nc2sc3c(c2C(=O)O)CC(C)(C)OC3)cc1 |
| 1120 | COc1ccccc1C(=O)NC(=S)Nc1sc2c(c1C(=O)O)CC(C)(C)OC2 |

Same assay, conditions: Bead-based multiplex flow cytometry, fluorescent GTP binding; at 100 µM (top of the series)

| percent response (remaining binding) | Structure (SMILES) |
| --- | --- |
| inactive | CC1(C)Cc2c(sc(NC(=S)Nc3ccccc3)c2C(=O)O)CO1 |
| inactive | CC(C)(C)C1Cc2c(sc(NC(=S)NC(=O)c3ccccc3)c2C(=O)O)CO1 (stereo not given) |

Source: PubChem BioAssay AID588631 (NMMLSC, 2011)
